Data on one molecule can be found in patent US3943137A, “Acronycine derivatives” (University of Kansas Endowment Association, priority 1973, dated 1976).

For series [1] the following is noted: intravenous; several instances; autopsy; cited from earlier work.
Another series concerns mouse neoplasms. The note with it: cited from earlier work.
For series [2] the following is noted: subcutaneous; cited from earlier work.
The next series concerns C-1498 leukemia. The note with it: oral and subcutaneous routes; cited from earlier work.
The next series deals with X-5563 myeloma. The note with it: oral and subcutaneous routes; cited from earlier work.
The conditions of series [3]: acronycine free base; cited from earlier work.
A short description of a further series: Solubility. Format: physicochemical. The note with it: water.
The subject of the next series is adenocarcinoma 755. The note with it: oral and subcutaneous routes; cited from earlier work.

The solubility is the concentration that dissolves in the medium under given conditions.

Each structure is given as a SMILES string. Values after ≈ are worked out from the molar mass of the structure shown. Where two headings read alike, the source gives them in different places.

`COc1cc2c(c3c1c(=O)c1ccccc1n3C)C=CC(C)(C)O2` [acronycine]: the “blockage of the circulatory system” value in series [1] is “blockage of the circulatory system was evidenced, autopsy revealing an actual aortic block by the compound itself”. In addition, the “reduction in the size of tumors” value with mouse neoplasms (aqueous suspension, Svoboda et al) was “significant reductions in the size of a number of tumors”. In the series on mouse neoplasms (delayed therapy), the “activity in delayed therapy experiments” value is listed as “significant activity in delayed therapy experiments”. Moreover, in the series on mouse neoplasms (intravenous, free base), the “antitumor activity, intravenous” value is “only minimum activity”. Moreover, in the series with mouse neoplasms (various routes), the “effectiveness by routes of administration” value is given as “effective by various routes of administration”. Also, the “tumors against which significant activity was demonstrated” value with mouse neoplasms (wide range of dose levels, Svoboda laboratory) was 12 of 17. In series [2], the “skin irritation or alopecia” value is recorded as “no evidence of skin irritation or alopecia”. In addition, the “activity against C-1498 leukemia” value in the series on C-1498 leukemia is on record as “significant activity”. Besides, the “activity against X-5563 myeloma” value with X-5563 myeloma was “significant activity”. For the same molecule, the values for the solubility (in series [3]; in “Solubility” (read-out: solubility in water)) were 2 to 3 µg/mL and 2 to 3 µg/mL (≈ 6.22 to 9.33 µM), respectively. Moreover, the “solubility (qualitative)” value in the series “Solubility” (acetone, benzene, listed as base) was “soluble in acetone and benzene, insoluble in water”. Moreover, in the series with adenocarcinoma 755, the “activity against adenocarcinoma 755” value is recorded as “significant activity”.
